Patent US8642544B2, “N-terminus conformationally constrained GLP-1 receptor agonist compounds” (Amylin Pharmaceuticals, LLC, priority 2009, dated 2014)

Columns and labels:
GLP-1 receptor = target: T1, GLP-1 receptor (Rattus norvegicus, UniProt P32301); assay: in vitro functional assay at the GLP-1 receptor (cyclase, cAMP production in RIN m5f cell membranes); format: biochemical; details: Cyclase GLP-1 Receptor EC50 (nM), Table 1; RIN m5f cell membranes, cAMP production (AlphaScreen)
T1 construct: 96-well assay plate containing RIN m5f cell membranes in an ATP/GTP mixture; endogenous in cells; host or cells: RIN m5f cell membranes
T1 sequence (P32301 22-463): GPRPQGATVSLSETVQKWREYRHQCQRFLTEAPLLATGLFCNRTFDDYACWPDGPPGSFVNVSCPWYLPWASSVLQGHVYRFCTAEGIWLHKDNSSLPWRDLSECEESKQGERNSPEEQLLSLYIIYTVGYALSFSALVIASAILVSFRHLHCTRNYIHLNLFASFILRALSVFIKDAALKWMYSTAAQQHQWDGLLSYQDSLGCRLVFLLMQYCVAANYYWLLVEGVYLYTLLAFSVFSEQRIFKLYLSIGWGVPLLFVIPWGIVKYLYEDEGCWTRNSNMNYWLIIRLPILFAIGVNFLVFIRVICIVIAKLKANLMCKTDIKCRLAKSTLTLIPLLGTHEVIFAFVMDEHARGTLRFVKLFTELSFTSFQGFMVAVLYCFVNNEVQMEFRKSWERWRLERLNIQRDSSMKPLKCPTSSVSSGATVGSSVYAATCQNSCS
Protocol: The compounds shown in Table 1 below were analyzed in an in vitro functional assay at the GLP-1 receptor. The assay was conducted as follows: Membrane fractions were prepared from confluent cultures of RIN m5f cells. Compounds were serially diluted with an assay buffer, and then added to a 96-well assay plate containing RIN m5f cell membranes in an ATP/GTP mixture. Cyclase activities were determined by measuring the production of cAMP induced through GLP-1 receptor activation. Quantification of cAMP production was achieved through a competitive chemiluminescence assay with a biotinylated-cAMP probe using Perkin Elmer Fusion™-Alpha Microplate Analyzer (AlphaScreen™ technology). The compound EC50 values were obtained through fitting the concentration-response curves to a four-parameter logistic equation within GraphPad PRISM® software.

NIH/Swiss female mice = assay: in vivo basal glucose lowering assay; details: subcutaneous injection
Protocol: Some compounds shown in Table 1 below were analyzed in an in vivo basal glucose lowering assay using the following procedure: A subcutaneous injection of either 200 μl phosphate-buffered saline (PBS) vehicle or test article was given immediately following baseline glucose (t=0) to NIH/Swiss female mice. Tail blood glucose samples were measured at t=2 and 4 hours post dose using a OneTouch® Ultra® (LifeScan, Inc., a Johnson & Johnson Company, Milpitas, Calif.). Body weight was measured daily. Significant test sample effects were identified by ANOVA (p<0.05), followed by Dunnett's post test using GraphPad Prism version 4.00 for Windows (GraphPad Software, San Diego Calif.).

[1] = Table 1, time in hours, tail blood glucose at t=2 and 4 hours post dose
[2] = Table 1, result in words (inactive / similar to GLP-1)

| SMILES | EC50 (GLP-1 receptor) [nM] | In Vivo Glucose-Lowering Assay (NIH/Swiss female mice; [1]) | In Vivo Glucose-Lowering Assay (NIH/Swiss female mice; [2]) |
| --- | --- | --- | --- |
| CC[C@H](C)[C@H](NC(=O)[C@H](Cc1ccccc1)NC(=O)[C@H](CC(C)C)NC(=O)[C@H](CCCNC(=N)N)NC(=O)[C@@H](NC(=O)[C@H](C)NC(=O)[C@H](CCC(=O)O)NC(=O)[C@H](CCC(=O)O)NC(=O)[C@H](CCC(=O)O)NC(=O)[C@H](CC(C)C)NC(=O)[C@H](CCC(N)=O)NC(=O)[C@H](CCCCN)NC(=O)[C@H](CO)NC(=O)[C@H](CC(C)C)NC(=O)[C@H](CC(=O)O)NC(=O)[C@H](CO)NC(=O)[C@@H](NC(=O)[C@H](Cc1ccccc1)NC(=O)[C@@H](NC(=O)CNC(=O)[C@@H]1CCCN1C(=O)CNC(=O)[C@@H](N)Cc1c[nH]cn1)[C@@H](C)O)[C@@H](C)O)C(C)C)C(=O)N[C@@H](CCC(=O)O)C(=O)N[C@@H](Cc1ccccc1)C(=O)N[C@@H](CC(C)C)C(=O)N[C@@H](CCCCN)C(=O)N[C@@H](CC(N)=O)C(N)=O [5B] | 0.53 | more than 4 hours | – |
| CC[C@H](C)[C@H](NC(=O)[C@H](Cc1ccccc1)NC(=O)[C@H](CC(C)C)NC(=O)[C@H](CCCNC(=N)N)NC(=O)[C@@H](NC(=O)[C@H](C)NC(=O)[C@H](CCC(=O)O)NC(=O)[C@H](CCC(=O)O)NC(=O)[C@H](CCC(=O)O)NC(=O)[C@H](CC(C)C)NC(=O)[C@H](CCC(N)=O)NC(=O)[C@H](CCCCN)NC(=O)[C@H](CO)NC(=O)[C@H](CC(C)C)NC(=O)[C@H](CC(=O)O)NC(=O)[C@H](CO)NC(=O)[C@@H](NC(=O)[C@H](Cc1ccccc1)NC(=O)[C@@H](NC(=O)CNC(=O)C(C)(C)NC(=O)[C@@H](C)NC(=O)[C@@H](N)Cc1c[nH]cn1)[C@@H](C)O)[C@@H](C)O)C(C)C)C(=O)N[C@@H](CCC(=O)O)C(=O)N[C@@H](Cc1ccccc1)C(=O)N[C@@H](CC(C)C)C(=O)N[C@@H](CCCCN)C(=O)N[C@@H](CC(N)=O)C(N)=O [9B] | 0.03 | more than 4 hours | – |
| CC[C@H](C)[C@H](NC(=O)[C@H](Cc1ccccc1)NC(=O)[C@H](CC(C)C)NC(=O)[C@H](CCCNC(=N)N)NC(=O)[C@@H](NC(=O)[C@H](C)NC(=O)[C@H](CCC(=O)O)NC(=O)[C@H](CCC(=O)O)NC(=O)[C@H](CCC(=O)O)NC(=O)[C@H](CC(C)C)NC(=O)[C@H](CCC(N)=O)NC(=O)[C@H](CCCCN)NC(=O)[C@H](CO)NC(=O)[C@H](CC(C)C)NC(=O)[C@H](CC(=O)O)NC(=O)[C@H](CO)NC(=O)[C@@H](NC(=O)[C@H](Cc1ccccc1)NC(=O)[C@@H](NC(=O)CNC(=O)[C@@H]1CSCN1C(=O)[C@@H](C)NC(=O)[C@@H](N)Cc1c[nH]cn1)[C@@H](C)O)[C@@H](C)O)C(C)C)C(=O)N[C@@H](CCC(=O)O)C(=O)N[C@@H](Cc1ccccc1)C(=O)N[C@@H](CC(C)C)C(=O)N[C@@H](CCCCN)C(=O)N[C@@H](CC(N)=O)C(N)=O [9D] | 0.01 | more than 4 hours | – |
| CC[C@H](C)[C@H](NC(=O)[C@H](Cc1ccccc1)NC(=O)[C@H](CC(C)C)NC(=O)[C@H](CCCNC(=N)N)NC(=O)[C@@H](NC(=O)[C@H](C)NC(=O)[C@H](CCC(=O)O)NC(=O)[C@H](CCC(=O)O)NC(=O)[C@H](CCC(=O)O)NC(=O)[C@H](CC(C)C)NC(=O)[C@H](CCC(N)=O)NC(=O)[C@H](CCCCN)NC(=O)[C@H](CO)NC(=O)[C@H](CC(C)C)NC(=O)[C@H](CC(=O)O)NC(=O)[C@H](CO)NC(=O)[C@@H](NC(=O)[C@H](Cc1ccccc1)NC(=O)[C@@H](NC(=O)CNC(=O)[C@@H]1CS(=O)(=O)CN1C(=O)[C@@H](C)NC(=O)[C@@H](N)Cc1c[nH]cn1)[C@@H](C)O)[C@@H](C)O)C(C)C)C(=O)N[C@@H](CCC(=O)O)C(=O)N[C@@H](Cc1ccccc1)C(=O)N[C@@H](CC(C)C)C(=O)N[C@@H](CCCCN)C(=O)N[C@@H](CC(N)=O)C(N)=O [9F] | 0.07 | more than 4 hours | – |
| CC[C@H](C)[C@H](NC(=O)[C@H](Cc1ccccc1)NC(=O)[C@H](CC(C)C)NC(=O)[C@H](CCCNC(=N)N)NC(=O)[C@@H](NC(=O)[C@H](C)NC(=O)[C@H](CCC(=O)O)NC(=O)[C@H](CCC(=O)O)NC(=O)[C@H](CCC(=O)O)NC(=O)[C@H](CC(C)C)NC(=O)[C@H](CCC(N)=O)NC(=O)[C@H](CCCCN)NC(=O)[C@H](CO)NC(=O)[C@H](CC(C)C)NC(=O)[C@H](CC(=O)O)NC(=O)[C@H](CO)NC(=O)[C@@H](NC(=O)[C@H](Cc1ccccc1)NC(=O)[C@@H](NC(=O)[C@H]1CCCN(C(=O)[C@@H]2CCCN(C(=O)[C@H](C)NC(=O)[C@@H](N)Cc3c[nH]cn3)C2)C1)[C@@H](C)O)[C@@H](C)O)C(C)C)C(=O)N[C@@H](CCC(=O)O)C(=O)N[C@@H](Cc1c[nH]c2ccccc12)C(=O)N[C@@H](CC(C)C)C(=O)N[C@@H](CCCCN)C(=O)N[C@@H](CCC(N)=O)C(=O)NCC(=O)NCC(=O)N1CCC[C@H]1C(=O)N[C@@H](CO)C(=O)N[C@@H](CCCCN)C(=O)N[C@@H](CCC(=O)O)C(=O)N[C@H](C(=O)N[C@H](C(=O)N[C@@H](CO)C(N)=O)[C@@H](C)CC)[C@@H](C)CC [15A] | – | – | inactive |
| CC[C@H](C)[C@H](NC(=O)[C@H](Cc1ccccc1)NC(=O)[C@H](CC(C)C)NC(=O)[C@H](CCCNC(=N)N)NC(=O)[C@@H](NC(=O)[C@H](C)NC(=O)[C@H](CCC(=O)O)NC(=O)[C@H](CCC(=O)O)NC(=O)[C@H](CCC(=O)O)NC(=O)[C@H](CC(C)C)NC(=O)[C@H](CCC(N)=O)NC(=O)[C@H](CCCCN)NC(=O)[C@H](CO)NC(=O)[C@H](CC(C)C)NC(=O)[C@H](CC(=O)O)NC(=O)[C@H](CO)NC(=O)[C@@H](NC(=O)[C@H](Cc1ccccc1)NC(=O)[C@@H](NC(=O)CNC(=O)[C@H]1CCCN(C(=O)[C@@H]2CCCN(C(=O)[C@@H](N)Cc3c[nH]cn3)C2)C1)[C@@H](C)O)[C@@H](C)O)C(C)C)C(=O)N[C@@H](CCC(=O)O)C(=O)N[C@@H](Cc1c[nH]c2ccccc12)C(=O)N[C@@H](CC(C)C)C(=O)N[C@@H](CCCCN)C(=O)N[C@@H](CCC(N)=O)C(=O)NCC(=O)NCC(=O)N1CCC[C@H]1C(=O)N[C@@H](CO)C(=O)N[C@@H](CCCCN)C(=O)N[C@@H](CCC(=O)O)C(=O)N[C@H](C(=O)N[C@H](C(=O)N[C@@H](CO)C(N)=O)[C@@H](C)CC)[C@@H](C)CC [15C] | – | – | inactive |
| CC[C@H](C)[C@H](NC(=O)[C@H](Cc1ccccc1)NC(=O)[C@H](CC(C)C)NC(=O)[C@H](CCCNC(=N)N)NC(=O)[C@@H](NC(=O)[C@H](C)NC(=O)[C@H](CCC(=O)O)NC(=O)[C@H](CCC(=O)O)NC(=O)[C@H](CCC(=O)O)NC(=O)[C@H](CC(C)C)NC(=O)[C@H](CCC(N)=O)NC(=O)[C@H](CCCCN)NC(=O)[C@H](CO)NC(=O)[C@H](CC(C)C)NC(=O)[C@H](CC(=O)O)NC(=O)[C@H](CO)NC(=O)[C@@H](NC(=O)[C@H](Cc1ccccc1)NC(=O)[C@@H](NC(=O)CNC(=O)[C@@H]1CCCN(C(=O)[C@H]2CCCN(C(=O)[C@@H](N)Cc3c[nH]cn3)C2)C1)[C@@H](C)O)[C@@H](C)O)C(C)C)C(=O)N[C@@H](CCC(=O)O)C(=O)N[C@@H](Cc1c[nH]c2ccccc12)C(=O)N[C@@H](CC(C)C)C(=O)N[C@@H](CCCCN)C(=O)N[C@@H](CCC(N)=O)C(=O)NCC(=O)NCC(=O)N1CCC[C@H]1C(=O)N[C@@H](CO)C(=O)N[C@@H](CCCCN)C(=O)N[C@@H](CCC(=O)O)C(=O)N[C@H](C(=O)N[C@H](C(=O)N[C@@H](CO)C(N)=O)[C@@H](C)CC)[C@@H](C)CC [15D] | – | – | inactive |
| CC[C@H](C)[C@H](NC(=O)[C@H](Cc1ccccc1)NC(=O)[C@H](CC(C)C)NC(=O)[C@H](CCCNC(=N)N)NC(=O)[C@@H](NC(=O)[C@H](C)NC(=O)[C@H](CCC(=O)O)NC(=O)[C@H](CCC(=O)O)NC(=O)[C@H](CCC(=O)O)NC(=O)[C@H](CC(C)C)NC(=O)[C@H](CCC(N)=O)NC(=O)[C@H](CCCCN)NC(=O)[C@H](CO)NC(=O)[C@H](CC(C)C)NC(=O)[C@H](CC(=O)O)NC(=O)[C@H](CO)NC(=O)[C@@H](NC(=O)[C@H](Cc1ccccc1)NC(=O)[C@@H](NC(=O)[C@@H]1CSC2[C@H](CC(=O)O)[C@H](NC(=O)[C@H](C)NC(=O)[C@@H](N)Cc3c[nH]cn3)C(=O)N21)[C@@H](C)O)[C@@H](C)O)C(C)C)C(=O)N[C@@H](CCC(=O)O)C(=O)N[C@@H](Cc1c[nH]c2ccccc12)C(=O)N[C@@H](CC(C)C)C(=O)N[C@@H](CCCCN)C(=O)N[C@@H](CCC(N)=O)C(=O)NCC(=O)NCC(=O)N1CCC[C@H]1C(=O)N[C@@H](CO)C(=O)N[C@@H](CCCCN)C(=O)N[C@@H](CCC(=O)O)C(=O)N[C@H](C(=O)N[C@H](C(=O)N[C@@H](CO)C(=O)O)[C@@H](C)CC)[C@@H](C)CC (stereo partly shown) [16A] | 0.52 | – | inactive |
